Measurements as given in patent publication US10413557B2, “Prodrugs of 17.BETA.-HSD1-inhibitors” (FORENDO PHARMA LTD, priority 2014, dated 2019).
Values after ≈ are worked out from the molar mass of the structure shown.

Assays:
[1] = Determination of bioavailability: oral pharmacokinetics in Cynomolgus monkeys; type: in vivo; details: dose corresponding to 10 mg/kg of parent drug, 0.5% Carboxymethyl cellulose in water
Procedure: This study was performed in order to determine bioavailability of the present compounds in vivo. All animal experiments are performed in accordance with standards of ethical conduct and appropriate institutional animal care and use policies.
The pharmacokinetic studies of the compounds of the invention were assessed in Cynomolgus monkeys. The study compounds were administrated orally at a dose level corresponding to 10 mg/kg of parent drug. The common aqueous formulation, 0.5% Carboxymethyl cellulose in water, was used as a vehicle. The blood samples were obtained by direct venipuncture at pre-dose, and ten sequential time points after oral administration.
The quantitative bioanalysis of plasma samples were performed in accordance with the guidance Bioanalytical Method Validation (FDA, 2001) and the Guideline on Bioanalytical Method Validation (European Medicines Agency, 2011). Analytical method was optimized for suitable chromatographic (peak shape, retention) and mass spectrometric (ionization efficiency) properties.
A non-compartmental pharmacokinetic analysis was carried out with individual plasma concentration-time curves using WinNonlin® Professional Version 6.3 (Pharsight Corporation): […]
The area under the concentration-time curve from 0 to the last measurable concentration (AUCt) was calculated using the linear-log trapezoidal rule.

[2] = Metabolic stability assay; type: in vitro ADME; details: human liver homogenate or microsomes
Procedure: The in vitro metabolic stability of the parent compounds was determined for exemplified compounds using human liver microsome and homogenate incubations. The incubation time points used with or without appropriate cofactors were 0 min and 60 min. Samples were collected at both time points and substrates were detected using LC/PDA/TOF-MS. In vitro metabolic stability (% remaining after 60 min in human liver homogenate or microsomes) of the compounds were calculated and the results are summarized in Table 4.

Aqueous solubility test = type: physicochemical; details: for solubility: buffer solution, aqueous buffer, thermodynamic from solid, rt, buffer pH 7.4, stirred 48 hours or less, HPLC
Procedure: The pH of the mixtures was held constant during the study. Excess amounts or a known amount of each component are added to 1 or 0.5 ml of buffer solution and the mixtures were stirred at rt for 48 hours or less, filtered (0.45 μm Millipore) and analyzed by HPLC.

[3] = biological target: T1, recombinant human 17β-HSD1 (Homo sapiens, UniProt P14061); test: Inhibition of recombinant human 17β-HSD1 (conversion of 3H-estrone to estradiol, HPLC); type: biochemical; details: inhibitor 1 μM; 30 nM estrone, 1 mM NADPH, 30 min RT; read-out: 17β-HDS1 Inhibition % at 1 μM
T1 construct: made in house; host or cells: Sd9 (Sf9) insect cells, baculovirus (Bac to Bac Expression System)
T1 sequence (P14061 1-328): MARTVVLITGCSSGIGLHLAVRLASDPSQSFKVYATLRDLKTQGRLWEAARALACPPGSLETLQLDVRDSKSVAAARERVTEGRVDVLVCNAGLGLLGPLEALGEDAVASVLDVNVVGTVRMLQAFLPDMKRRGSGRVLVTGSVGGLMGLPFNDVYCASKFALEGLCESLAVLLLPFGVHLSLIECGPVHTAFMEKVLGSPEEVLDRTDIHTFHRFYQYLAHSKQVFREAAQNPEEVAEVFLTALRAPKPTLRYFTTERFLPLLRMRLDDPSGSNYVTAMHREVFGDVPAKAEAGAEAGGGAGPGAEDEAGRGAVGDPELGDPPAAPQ
Procedure: 17β-HSD1 production and isolation: Recombinant baculovirus was generated by the “Bac to Bac Expression System” (Invitrogen). Recombinant bacmid was transfected to Sd9 insect cells using “Cellfectin Reagent” (Invitrogen). 60 h later cells were harvested; the microsomal fraction was isolated as described by Puranen, T. J., Poutanen, M. H., Peltoketo, H. E., Vihko, P. T. and Vihko, R. K. (1994) Site-directed mutagenesis of the putative active site of human 17 β-hydroxysteroid dehydrogenase type 1. Biochem. J. 304: 289-293. Aliquots were stored frozen until determination of enzymatic activity.
Assay—Inhibition of recombinant human 17β-HSD1: Protein homogenate (0.1 μg/ml) was incubated in 20 mM KH2PO4 pH 7.4 with 30 nM estrone (including 800 000 cpm/ml of ^3H-estrone) and 1 mM NADPH for 30 min at RT, in the presence of the potential inhibitor at concentrations 1 μM or 0.1 μM. Inhibitor stock solutions were prepared in DMSO. Final concentration of DMSO was adjusted to 1% in all samples. The enzyme reaction was stopped by addition of 10% trichloroacetic acid (final concentration). Samples were centrifuged in a microtiter plate at 4000 rpm for 10 min. Supernatants were applied to reverse phase HPLC on a Waters Symmetry C18 column, equipped with a Waters Sentry Guard column. Isocratic HPLC runs were performed at RT at a flow rate of 1 ml/min in acetonitrile:water 48:52 as running solvent. Radioactivity was monitored in the eluate by a Packard Flow Scintillation Analyzer. Total radioactivity for estrone and estradiol were determined in each sample and percent conversion of estrone to estradiol was calculated according to the following formula:
(§1) Percent inhibition was calculated flowingly: % inhibition=100−% conversion

[4] = biological target: T2, recombinant human 17β-HSD2 (Homo sapiens, UniProt P37059); test: Inhibition of recombinant human 17β-HSD2 (conversion of 3H-estradiol to estrone, HPLC); type: biochemical; details: inhibitor 1 μM; 50 nM estradiol, 1 mM NADH, 30 min RT
T2 construct: made in house; host or cells: Sd9 (Sf9) insect cells, baculovirus (Bac to Bac Expression System)
T2 sequence (P37059 1-387): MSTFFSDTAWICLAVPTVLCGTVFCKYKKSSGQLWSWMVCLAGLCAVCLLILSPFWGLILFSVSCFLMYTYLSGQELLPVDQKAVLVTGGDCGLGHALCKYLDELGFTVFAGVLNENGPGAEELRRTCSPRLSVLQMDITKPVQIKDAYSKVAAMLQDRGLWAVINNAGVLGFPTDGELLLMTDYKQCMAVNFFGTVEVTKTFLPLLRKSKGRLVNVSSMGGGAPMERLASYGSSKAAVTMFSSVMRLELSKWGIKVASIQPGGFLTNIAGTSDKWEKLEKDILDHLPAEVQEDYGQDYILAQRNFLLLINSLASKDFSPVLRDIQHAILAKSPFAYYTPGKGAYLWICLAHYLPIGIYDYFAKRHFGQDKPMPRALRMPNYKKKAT
Procedure: 17β-HSD2 production and isolation: Similarly to 17β-HSD1 the Recombinant baculovirus was generated by the “Bac to Bac Expression System” (Invitrogen). Recombinant bacmid was transfected to Sd9 insect cells using “Cellfectin Reagent” (Invitrogen). 60 h later cells were harvested and supernatant were fractionated by the following protocol: • cells were dissolved into 40 ml of A-buffer (40 mM TRIS, pH8.0, 20% glycerol, 20 μM NAD, 0.4 mM PMSF, 150 mM NaCl, 0.5% dodecyl-β-maltoside+protease inhibitor cocktail) • cells were sonicated • lysate was incubated on ice for 15 min • lysate was centrifuged 5000 rpm 15 min, +4° C. • centrifugation of the supernatant 180 000 g 30 min, +4° C. • pellet was dissolved into 8 ml of A-buffer • not resuspended material was removed by centrifugation 5000 rpm 15 min, +4° C. • the clear supernatant was divided into 100 μl aliquots and were stored frozen until determination of enzymatic activity.
The amount of 17β-HSD2 was analysed by immunoblotting and total protein concentration of each extract batch was determined.
Assay—Inhibition of recombinant human 17β-HSD2: Protein homogenate (4 μg/ml) was incubated in 20 mM KH2PO4 pH 8.5 with 50 nM estradiol (including 800 000 cpm/ml of ^3H-estradiol) and 1 mM […] for 30 min at RT, in the presence of the potential inhibitor at concentrations 1 μM or 0.1 μM. Inhibitor stock solutions were prepared in DMSO. Final concentration of DMSO was adjusted to 1% in all samples. The enzyme reaction was stopped by addition of 10% trichloroacetic acid (final concentration). Samples were centrifuged in a microtiter plate at 4000 rpm for 10 min. Supernatants were applied to reverse phase HPLC on a Waters Symmetry C18 column, equipped with a Waters Sentry Guard column. Isocratic HPLC runs were performed at RT at a flow rate ofl ml/min in acetonitrile:water 48:52 as running solvent. Radioactivity was monitored in the eluate by a Packard Flow Scintillation Analyzer. Total radioactivity for estrone and estradiol were determined in each sample and percent conversion of estradiol to estrone was calculated according to the following formula:
as §1

| Molecule | Cmax [1] | AUCt ([1]; 0 to last measurable concentration) | In vitro metabolic stability, % remaining after 60 min [2] | solubility (Aqueous solubility test) | inhibition at 1 µM [3] | inhibition at 1 µM [4] | aqueous solubility, in words (Aqueous solubility test; comment on Table 5, compared with parent VIV-1) |
| --- | --- | --- | --- | --- | --- | --- | --- |
| Phosphoric acid mono-{(13S,15R)-17-[(E)-methoxyimino]-13-methyl-15-[2-(5-methylthiazol-2-ylcarbamoyl)ethyl-7,8,9,11,12,13,14,15,16,17-decahydro-6H-cyclopenta[a]phenanthren-3-yl} ester disodium salt [Compound 1a] | 286 ng/mL | 3170 ng·h/mL |  |  |  |  |  |
| CO/N=C1\C[C@@H](CCC(=O)Nc2ncc(C)s2)C2C3CCc4cc(O)ccc4C3CC[C@]12C (stereo partly drawn) [VIV-1, 3-{(13S,15R)-3-Hydroxy-17-[(E)-methoxyimino]-13-methyl-7,8,9,11,12,13,14,15,16,17-decahydro-6H-cyclopenta[a]phenanthren-15-yl}-N-(5-methylthiazol-2-yl)propanamide] |  |  | 73% | < 0.52 µg/mL | 95% | 4% |  |
| CO/N=C1\C[C@@H](CCC(=O)Nc2ncc(C)s2)C2C3CCc4cc(OC(=O)CN)ccc4C3CC[C@]12C (stereo partly drawn) [Compound 3, Aminoacetic acid (13S,15R)-13-methyl-17[(E)-methoxyimino]-15-[2-(5-methyl-thiazol-2-ylcarbamoyl)-ethyl]-7,8,9,11,12,13,14,15,16,17-decahydro-6H-cyclopenta[a]phenanthren-3-yl ester] |  |  |  | 2.37 µg/mL (≈ 4.52 µM) |  |  | improved aqueous solubility |
